pEC50, pIC50, pKi: −log10 of the molar value. In brackets after ≈: the same amount, converted by molar mass.
What was measured:
[1] = target: T1, Metabotropic glutamate receptor 5 (Homo sapiens, UniProt P41594); experiment: Positive allosteric modulation of human mGluR5 expressed in HEK293A cells assessed as stimulation of glutamate-induced calcium flux by FLIPR method; format: functional, cell-based, HEK293-A; details: for Emax: HEK293-A
[2] = target: T1, Metabotropic glutamate receptor 5; experiment: Negative allosteric modulation of human mGluR5 expressed in HEK293A cells assessed as inhibition of glutamate-induced calcium flux by FLIPR method; format: functional, cell-based, HEK293-A; details: for inhibition: HEK293-A, concentration not given here
[3] = Solubility of the compound in […] by UPLC method; format: physicochemical
[4] = target: T1, Metabotropic glutamate receptor 5; experiment: Displacement of [3H]NAM from mGluR5
Target sequence in this assay (P41594 whole entry): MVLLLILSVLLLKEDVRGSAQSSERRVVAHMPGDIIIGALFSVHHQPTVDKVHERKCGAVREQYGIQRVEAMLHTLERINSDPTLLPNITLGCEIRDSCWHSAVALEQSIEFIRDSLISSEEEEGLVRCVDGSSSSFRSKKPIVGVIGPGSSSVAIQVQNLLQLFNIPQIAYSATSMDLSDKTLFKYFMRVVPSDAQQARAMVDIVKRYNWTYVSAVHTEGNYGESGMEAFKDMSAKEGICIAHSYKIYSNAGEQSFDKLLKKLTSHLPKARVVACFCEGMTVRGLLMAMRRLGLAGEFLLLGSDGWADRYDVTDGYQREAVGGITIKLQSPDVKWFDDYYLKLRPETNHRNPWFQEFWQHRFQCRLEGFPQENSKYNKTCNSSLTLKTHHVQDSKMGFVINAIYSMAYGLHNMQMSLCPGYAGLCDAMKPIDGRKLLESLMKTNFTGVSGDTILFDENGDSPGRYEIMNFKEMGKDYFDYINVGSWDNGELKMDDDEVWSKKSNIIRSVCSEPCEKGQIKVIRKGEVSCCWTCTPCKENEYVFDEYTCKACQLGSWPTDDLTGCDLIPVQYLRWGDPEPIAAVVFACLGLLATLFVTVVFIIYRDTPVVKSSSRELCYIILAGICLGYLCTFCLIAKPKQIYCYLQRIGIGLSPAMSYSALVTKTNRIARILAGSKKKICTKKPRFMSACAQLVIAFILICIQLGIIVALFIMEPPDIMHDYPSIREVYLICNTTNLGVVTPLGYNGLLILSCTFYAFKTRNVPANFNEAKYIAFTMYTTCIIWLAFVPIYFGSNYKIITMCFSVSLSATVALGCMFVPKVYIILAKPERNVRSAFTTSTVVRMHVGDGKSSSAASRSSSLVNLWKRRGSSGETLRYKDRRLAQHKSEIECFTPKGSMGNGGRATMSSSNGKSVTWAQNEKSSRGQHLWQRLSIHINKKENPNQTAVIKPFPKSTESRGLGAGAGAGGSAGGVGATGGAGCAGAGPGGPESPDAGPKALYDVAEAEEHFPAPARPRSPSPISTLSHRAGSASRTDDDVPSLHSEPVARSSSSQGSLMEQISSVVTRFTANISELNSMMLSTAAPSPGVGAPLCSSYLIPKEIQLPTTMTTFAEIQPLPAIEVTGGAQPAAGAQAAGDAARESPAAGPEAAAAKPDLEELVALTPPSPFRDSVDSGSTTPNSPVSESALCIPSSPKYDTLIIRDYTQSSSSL

[5] = Plasma protein binding in human plasma; format: ADME, cell-free; details: read-out: PPB (converted)
[6] = Plasma protein binding in rat plasma; format: ADME, cell-free; details: read-out: PPB (converted)
[7] = Drug uptake in rat brain at 10 mg/kg, ip administered as single dose after 1 hr; format: ADME, organism-based; parameters: dose 10 mg/kg, route intraperitoneal; details: read-out: Drug uptake
[8] = Plasma concentration in rat at 10 mg/kg, ip administered as single dose after 1 hr; format: ADME, organism-based; parameters: dose 10 mg/kg, route intraperitoneal
[9] = Ratio of drug uptake in brain to plasma in rat at 10 mg/kg, ip administered as single dose after 1 hr; format: ADME, organism-based; parameters: dose 10 mg/kg, route intraperitoneal; details: read-out: BPR
[10] = Apparent permeability from apical to basolateral direction in MDCKI cells expressing MDR; format: ADME, cell-based, Canis lupus familiaris; details: dog, MDCK-MDR1
[11] = Apparent permeability from basolateral to apical direction in MDCKI cells expressing MDR; format: ADME, cell-based, Canis lupus familiaris; details: dog, MDCK-MDR1
Liver [12] = experiment: Intrinsic clearance in human liver; format: ADME, tissue-based
Liver [13] = experiment: Intrinsic clearance in rat liver; format: ADME, tissue-based
Cytochrome P450 1A2 = target: T2, Cytochrome P450 1A2 (Homo sapiens, UniProt P05177); experiment: Inhibition of CYP1A2; format: ADME
T2 sequence (P05177 whole entry): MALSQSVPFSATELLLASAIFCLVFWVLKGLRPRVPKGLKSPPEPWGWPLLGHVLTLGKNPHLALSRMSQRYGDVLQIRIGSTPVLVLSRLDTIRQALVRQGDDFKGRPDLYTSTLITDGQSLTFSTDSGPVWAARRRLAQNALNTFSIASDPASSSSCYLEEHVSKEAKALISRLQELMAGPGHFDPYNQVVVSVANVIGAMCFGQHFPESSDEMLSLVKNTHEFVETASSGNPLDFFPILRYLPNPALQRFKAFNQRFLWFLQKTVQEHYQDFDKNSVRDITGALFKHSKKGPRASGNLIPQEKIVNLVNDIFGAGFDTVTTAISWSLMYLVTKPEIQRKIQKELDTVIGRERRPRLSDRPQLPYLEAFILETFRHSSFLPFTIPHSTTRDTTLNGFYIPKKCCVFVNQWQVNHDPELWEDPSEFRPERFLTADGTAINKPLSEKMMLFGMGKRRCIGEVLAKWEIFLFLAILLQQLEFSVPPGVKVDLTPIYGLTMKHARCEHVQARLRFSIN

Cytochrome P450 2C9 = Cytochrome P450 2C9 (Homo sapiens, UniProt P11712); experiment: Inhibition of CYP2C9; format: ADME
Cytochrome P450 2C19 = Cytochrome P450 2C19 (Homo sapiens, UniProt P33261); experiment: Inhibition of CYP2C19; format: ADME
Cytochrome P450 2D6 = Cytochrome P450 2D6 (Homo sapiens, UniProt P10635); experiment: Inhibition of CYP2D6; format: ADME
Cytochrome P450 3A4 = Cytochrome P450 3A4 (Homo sapiens, UniProt P08684); experiment: Inhibition of CYP3A4; format: ADME
Cytochrome P450 3A4, sequence (P08684 whole entry): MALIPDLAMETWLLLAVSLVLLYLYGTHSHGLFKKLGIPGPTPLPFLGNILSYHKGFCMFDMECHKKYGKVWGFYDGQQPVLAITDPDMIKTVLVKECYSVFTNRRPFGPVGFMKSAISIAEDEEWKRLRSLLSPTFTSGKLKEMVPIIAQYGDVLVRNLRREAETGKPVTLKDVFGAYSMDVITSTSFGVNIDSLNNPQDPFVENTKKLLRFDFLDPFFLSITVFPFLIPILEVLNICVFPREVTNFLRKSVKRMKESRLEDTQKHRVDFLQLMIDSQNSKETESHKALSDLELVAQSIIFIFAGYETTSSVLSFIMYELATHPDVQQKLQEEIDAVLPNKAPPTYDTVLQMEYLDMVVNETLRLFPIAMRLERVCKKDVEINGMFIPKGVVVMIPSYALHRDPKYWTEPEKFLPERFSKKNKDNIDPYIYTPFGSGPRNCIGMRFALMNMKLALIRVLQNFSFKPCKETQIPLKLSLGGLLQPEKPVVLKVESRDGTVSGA

Cytochrome P450 2C9, sequence (P11712 whole entry): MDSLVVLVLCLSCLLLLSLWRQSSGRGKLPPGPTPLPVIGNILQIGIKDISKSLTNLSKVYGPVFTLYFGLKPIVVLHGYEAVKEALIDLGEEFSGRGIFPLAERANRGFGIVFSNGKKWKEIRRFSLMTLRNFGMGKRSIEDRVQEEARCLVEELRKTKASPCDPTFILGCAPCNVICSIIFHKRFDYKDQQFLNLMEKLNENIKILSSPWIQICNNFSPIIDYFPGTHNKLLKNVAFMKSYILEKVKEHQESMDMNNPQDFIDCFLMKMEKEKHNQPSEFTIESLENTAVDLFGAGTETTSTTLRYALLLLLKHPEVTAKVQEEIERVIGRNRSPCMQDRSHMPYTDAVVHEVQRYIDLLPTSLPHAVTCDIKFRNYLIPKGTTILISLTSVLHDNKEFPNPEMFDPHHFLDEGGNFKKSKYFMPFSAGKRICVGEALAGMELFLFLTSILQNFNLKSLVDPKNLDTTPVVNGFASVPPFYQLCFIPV
Cytochrome P450 2C19, sequence (P33261 whole entry): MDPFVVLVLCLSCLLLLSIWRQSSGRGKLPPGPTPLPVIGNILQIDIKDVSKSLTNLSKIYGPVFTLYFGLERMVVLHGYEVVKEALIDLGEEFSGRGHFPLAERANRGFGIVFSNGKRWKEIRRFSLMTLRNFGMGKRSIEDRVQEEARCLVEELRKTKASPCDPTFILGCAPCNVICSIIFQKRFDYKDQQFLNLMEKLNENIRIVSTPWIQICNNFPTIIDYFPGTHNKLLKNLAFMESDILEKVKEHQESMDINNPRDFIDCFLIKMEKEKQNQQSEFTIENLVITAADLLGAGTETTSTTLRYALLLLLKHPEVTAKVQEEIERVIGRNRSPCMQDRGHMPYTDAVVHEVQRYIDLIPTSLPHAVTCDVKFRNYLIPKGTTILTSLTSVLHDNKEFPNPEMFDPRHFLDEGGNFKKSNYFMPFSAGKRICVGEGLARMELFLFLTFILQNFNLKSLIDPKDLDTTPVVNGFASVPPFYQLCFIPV
Cytochrome P450 2D6, sequence (P10635 whole entry): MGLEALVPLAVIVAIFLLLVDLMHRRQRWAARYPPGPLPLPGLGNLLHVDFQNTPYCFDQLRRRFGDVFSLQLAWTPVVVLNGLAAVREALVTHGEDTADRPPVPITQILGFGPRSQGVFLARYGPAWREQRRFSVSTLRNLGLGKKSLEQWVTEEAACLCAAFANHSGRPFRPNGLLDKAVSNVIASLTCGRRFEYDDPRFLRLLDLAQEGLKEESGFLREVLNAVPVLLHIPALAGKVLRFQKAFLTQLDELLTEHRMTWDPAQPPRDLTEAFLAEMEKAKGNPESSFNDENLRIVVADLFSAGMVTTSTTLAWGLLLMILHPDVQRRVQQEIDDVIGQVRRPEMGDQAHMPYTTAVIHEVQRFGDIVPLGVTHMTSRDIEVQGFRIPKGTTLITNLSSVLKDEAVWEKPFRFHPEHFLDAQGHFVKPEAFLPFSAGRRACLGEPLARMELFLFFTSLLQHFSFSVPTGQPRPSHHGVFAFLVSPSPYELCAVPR

pEC50 [1] | Emax [1] [%] | pIC50 [2] | inhibition [2] [%] | Compound | further results
5.92 | 130 | – | – | Cc1ccc(N2CC(c3nc(-c4cccc(F)c4)no3)CC2=O)cc1 (configuration not stated) | –
< 5.00 | -15 | – | – | Cc1cccc(-c2noc(C3CC(=O)N(c4ccc(F)cc4)C3)n2)n1 (configuration not stated) | solubility [3]: 26 µM (≈ 8.8 µg/mL)
6.77 | 1.6 | – | – | Cc1cccc(-c2noc(C3CC(=O)N(c4ccc(Cl)cc4)C3)n2)c1 (configuration not stated) | –
8.29 | – | – | – | Cc1cccc(-c2noc(C3CC(=O)N(c4ccc(F)cc4)C3)n2)c1 (single isomer, unassigned; (-)) | pKi [4]: 6.64; fraction unbound [5]: 0.007; fraction unbound [6]: 0.003; concentration at 1 h [7]: 342 ng/g; concentration at 1 h [8]: 46 ng/mL; Kp at 1 h [9]: 7.5; Papp A→B [10]: 20 ×10⁻⁶ cm/s; Papp B→A [11]: 6.4 ×10⁻⁶ cm/s; CLH (Liver [12]): 1 L/min; CLH (Liver [13]): 20 mL/min
– | 78 | – | – | Cc1cccc(-c2noc(C3CC(=O)N(c4ccc(F)cc4)C3)n2)c1 (racemic) [listing 1 of 2 here] | –
5.89 | 150 | – | – | Cc1ccc(N2CC(c3nc(-c4cccc(C)c4)no3)CC2=O)cc1 (configuration not stated) | –
6.20 | 120 | – | – | O=C1CC(c2nc(-c3cccc(F)c3)no2)CN1c1ccc(Cl)cc1 (configuration not stated) | –
6.41 | 65 | – | – | Cc1cccc(-c2noc(C3CC(=O)N(c4ccc(Cl)c(Cl)c4)C3)n2)c1 (configuration not stated) | –
< 5.00 | 25 | – | – | O=C1CC(c2nc(-c3cccc(C(F)(F)F)c3)no2)CN1c1ccc(F)cc1 (configuration not stated) | –
5.96 | 48 | – | – | COc1cccc(-c2noc(C3CC(=O)N(c4ccc(F)cc4)C3)n2)c1 (configuration not stated) | –
< 5.00 | 28 | 5.64 | 85 | Cc1cccc(N2CC(c3nc(-c4cccc(Cl)c4)no3)CC2=O)c1 (configuration not stated) | –
7.24 | 130 | – | – | O=C1CC(c2nc(-c3ccccc3)no2)CN1c1ccc(F)cc1 (configuration not stated) | –
5.77 | 33 | – | – | O=C1CC(c2nc(-c3ccc(F)cc3)no2)CN1c1ccc(Cl)cc1 (configuration not stated) | –
5.47 | 32 | – | – | Cc1ccc(N2CC(c3nc(-c4cccc(C(F)(F)F)c4)no3)CC2=O)cc1 (configuration not stated) | –
6.51 | 57 | < 5.00 | – | Cc1ccc(N2CC(c3nc(-c4cccc(Cl)c4)no3)CC2=O)cc1C (configuration not stated) | –
< 5.00 | -37 | 6.16 | 92 | COc1cccc(N2CC(c3nc(-c4cccc(Cl)c4)no3)CC2=O)c1 (configuration not stated) | –
6.62 | 90 | – | – | Cc1cccc(-c2noc(C3CC(=O)N(c4ccc(C)c(Cl)c4)C3)n2)c1 (configuration not stated) | –
6.85 | 67 | < 5.00 | 44 | O=C1CC(c2nc(-c3cccc(Cl)c3)no2)CN1c1ccc(Cl)cc1 (configuration not stated) | –
< 5.00 | 47 | 5.45 | 2 | COc1ccc(N2CC(c3nc(-c4cccc(Cl)c4)no3)CC2=O)cc1 (configuration not stated) | –
6.20 | 69 | < 5.00 | -2.5 | Cc1ccc(N2CC(c3nc(-c4cccc(Cl)c4)no3)CC2=O)cc1 (configuration not stated) | –
7.90 | – | – | – | Cc1cccc(-c2noc(C3CC(=O)N(c4ccc(F)cc4)C3)n2)c1 (racemic) [listing 2 of 2 here] | solubility [3]: 2.7 µM (≈ 0.911 µg/mL); pIC50 (Cytochrome P450 1A2): < 4.96; pIC50 (Cytochrome P450 2C9): < 4.96; pIC50 (Cytochrome P450 2C19): < 4.96; pIC50 (Cytochrome P450 2D6): < 4.96; pIC50 (Cytochrome P450 3A4): < 4.96; CLH (Liver [12]): 2.7 L/min; CLH (Liver [13]): 27 mL/min
5.32 | 50 | – | – | COc1cccc(-c2noc(C3CC(=O)N(c4ccc(Cl)cc4)C3)n2)c1 (configuration not stated) | –
< 5.00 | 1 | – | – | Cc1cccc(-c2noc(C3CC(=O)N(c4ccc(Cl)cc4)C3)n2)n1 (configuration not stated) | solubility [3]: 26 µM (≈ 9.22 µg/mL)
7.06 | 140 | – | – | O=C1CC(c2nc(-c3cccc(F)c3)no2)CN1c1ccc(F)cc1 (configuration not stated) | –
7.97 | – | < 5.00 | – | O=C1CC(c2nc(-c3cccc(Cl)c3)no2)CN1c1ccc(F)cc1 (racemic) [listing 1 of 2 here] | solubility [3]: 15 µM (≈ 5.37 µg/mL); pKi [4]: 6.39; concentration at 1 h [7]: 86 ng/g; concentration at 1 h [8]: 22 ng/mL; CLH (Liver [12]): 0.6 L/min; CLH (Liver [13]): 22 mL/min
6.42 | 41 | – | – | Cc1ccc(N2CC(c3nc(-c4ccccc4)no3)CC2=O)cc1 (configuration not stated) | –
– | 55 | – | – | O=C1CC(c2nc(-c3cccc(Cl)c3)no2)CN1c1ccc(F)cc1 (racemic) [listing 2 of 2 here] | –
8.06 | – | – | – | O=C1CC(c2nc(-c3cccc(Cl)c3)no2)CN1c1ccc(F)cc1 (single isomer, unassigned; (-)) | pKi [4]: 6.82

Second part, the compound before the results:

Compound | pEC50 [1] | Emax [1] [%] | pIC50 [2] | inhibition [2] [%] | further results
O=C1CC(c2nc(-c3ccc(F)cc3)no2)CN1c1ccc(Cl)c(Cl)c1 (configuration not stated) | 5.64 | 44 | – | – | –
CC(C)CN1CC(c2nc(-c3cccc(Cl)c3)no2)CC1=O (configuration not stated) | – | – | 6.04 | – | solubility [3]: 23 µM (≈ 7.36 µg/mL)
O=C1CC(c2nc(-c3cccc(Cl)c3)no2)CN1c1cccc(Cl)c1 (configuration not stated) | < 5.00 | -18 | 5.96 | 68 | –
O=C1CC(c2nc(-c3cccc(Cl)c3)no2)CN1c1ccccc1Cl (configuration not stated) | < 5.00 | -31 | 6.17 | 93 | –
CC(C)N1CC(c2nc(-c3cccc(Cl)c3)no2)CC1=O (configuration not stated) | – | – | – | – | solubility [3]: 23 µM (≈ 7.03 µg/mL)
O=C1CC(c2nc(Cc3ccccc3)no2)CN1c1ccc(F)cc1 (configuration not stated) | – | – | – | – | solubility [3]: 23 µM (≈ 7.76 µg/mL)
O=c1sc2ccccc2n1Cc1nc(-c2cccc(Cl)c2)no1 | < 5.00 | 7 | 5.96 | 71 | –
COc1ccccc1N1CC(c2nc(-c3cccc(Cl)c3)no2)CC1=O (configuration not stated) | < 5.00 | -31 | 6.20 | 93 | –
O=C1CC(c2nc(-c3cccc(Cl)c3)no2)CN1c1ccccc1F (configuration not stated) | < 5.00 | -29 | 5.96 | 89 | –
O=C1CC(c2nc(-c3ccccc3)no2)CN1c1ccccc1 (configuration not stated) | 6.46 | 42 | – | – | –
O=C1CC(c2nc(-c3cccc(Cl)c3)no2)CN1c1ccc(Cl)c(Cl)c1 (configuration not stated) | 6.34 | 51 | < 5.00 | 8.3 | –
O=C1CCc2ccc(Cl)cc2N1CCc1nc(-c2cccc(Cl)c2)no1 | < 5.00 | -29 | 6.26 | 82 | –
O=C1CC(c2nc(-c3ccc(Cl)cc3)no2)CN1c1ccc(Cl)c(Cl)c1 (configuration not stated) | 5.96 | 44 | – | – | –
O=C1COc2ccccc2N1CCc1nc(-c2cccc(Cl)c2)no1 | < 5.00 | -29 | 6.10 | 88 | –
O=C1CC(c2nc(-c3cccc(Cl)c3)no2)CN1Cc1ccc(F)cc1 (configuration not stated) | – | – | 5.44 | – | solubility [3]: 23 µM (≈ 8.55 µg/mL)
O=c1oc2ccccc2n1Cc1nc(-c2cccc(Cl)c2)no1 | < 5.00 | 4 | 5.68 | 50 | –
C[C@H](c1ccccc1)N1C[C@H](c2nc(-c3cccc(Cl)c3)no2)CC1=O | – | – | 5.80 | – | solubility [3]: 23 µM (≈ 8.46 µg/mL)
O=C1COc2ccccc2N1Cc1nc(-c2cccc(Cl)c2)no1 | < 5.00 | -28 | 6.11 | 84 | –
O=C1CC(c2nc(-c3ccccn3)no2)CN1c1ccc(F)cc1 (configuration not stated) | < 5.00 | -41 | – | – | solubility [3]: 26 µM (≈ 8.43 µg/mL)
Cc1ccccc1N1CC(c2nc(-c3cccc(Cl)c3)no2)CC1=O (configuration not stated) | < 5.00 | -29 | 6.43 | 91 | –
O=C1CC(c2nc(-c3cccc(F)c3)no2)CN1c1ccc(Cl)c(Cl)c1 (configuration not stated) | 5.49 | 140 | – | – | –

Reference: ChEMBL document CHEMBL2069226, “N-Aryl pyrrolidinonyl oxadiazoles as potent mGluR5 positive allosteric modulators” (Bioorg Med Chem Lett, 2012)
